Experimental data taken from patent publication US10233191B2, “Fused piperidine amides as modulators of ion channels” (Vertex Pharmaceuticals Incorporated, priority 2013, dated 2019).

Each molecule was assayed against T1, NaV 1.7 (Homo sapiens, UniProt Q15858) (assay: E-VIPR optical membrane potential assay with electrical stimulation). Details: active against one or more sodium channels; assay/subtype not specified in Table 4; read-out: IC50 Binned Activity Data.
T1 construct: expressed in transfected cells; host or cells: HEK cells
Type: cell-based
In short: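 HEK cells expressing human NaV1.7, loaded with CC2-DMPE/DiSBAC6(3) FRET dyes, then exposed to compounds for 20-35 min at room temperature (0.625% DMSO). Electrical stimulation applied for 9 s with 400 Hz scanning. Read-out is the background-subtracted 460/580 nm emission ratio, normalized.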

T1 sequence (Q15858 whole entry): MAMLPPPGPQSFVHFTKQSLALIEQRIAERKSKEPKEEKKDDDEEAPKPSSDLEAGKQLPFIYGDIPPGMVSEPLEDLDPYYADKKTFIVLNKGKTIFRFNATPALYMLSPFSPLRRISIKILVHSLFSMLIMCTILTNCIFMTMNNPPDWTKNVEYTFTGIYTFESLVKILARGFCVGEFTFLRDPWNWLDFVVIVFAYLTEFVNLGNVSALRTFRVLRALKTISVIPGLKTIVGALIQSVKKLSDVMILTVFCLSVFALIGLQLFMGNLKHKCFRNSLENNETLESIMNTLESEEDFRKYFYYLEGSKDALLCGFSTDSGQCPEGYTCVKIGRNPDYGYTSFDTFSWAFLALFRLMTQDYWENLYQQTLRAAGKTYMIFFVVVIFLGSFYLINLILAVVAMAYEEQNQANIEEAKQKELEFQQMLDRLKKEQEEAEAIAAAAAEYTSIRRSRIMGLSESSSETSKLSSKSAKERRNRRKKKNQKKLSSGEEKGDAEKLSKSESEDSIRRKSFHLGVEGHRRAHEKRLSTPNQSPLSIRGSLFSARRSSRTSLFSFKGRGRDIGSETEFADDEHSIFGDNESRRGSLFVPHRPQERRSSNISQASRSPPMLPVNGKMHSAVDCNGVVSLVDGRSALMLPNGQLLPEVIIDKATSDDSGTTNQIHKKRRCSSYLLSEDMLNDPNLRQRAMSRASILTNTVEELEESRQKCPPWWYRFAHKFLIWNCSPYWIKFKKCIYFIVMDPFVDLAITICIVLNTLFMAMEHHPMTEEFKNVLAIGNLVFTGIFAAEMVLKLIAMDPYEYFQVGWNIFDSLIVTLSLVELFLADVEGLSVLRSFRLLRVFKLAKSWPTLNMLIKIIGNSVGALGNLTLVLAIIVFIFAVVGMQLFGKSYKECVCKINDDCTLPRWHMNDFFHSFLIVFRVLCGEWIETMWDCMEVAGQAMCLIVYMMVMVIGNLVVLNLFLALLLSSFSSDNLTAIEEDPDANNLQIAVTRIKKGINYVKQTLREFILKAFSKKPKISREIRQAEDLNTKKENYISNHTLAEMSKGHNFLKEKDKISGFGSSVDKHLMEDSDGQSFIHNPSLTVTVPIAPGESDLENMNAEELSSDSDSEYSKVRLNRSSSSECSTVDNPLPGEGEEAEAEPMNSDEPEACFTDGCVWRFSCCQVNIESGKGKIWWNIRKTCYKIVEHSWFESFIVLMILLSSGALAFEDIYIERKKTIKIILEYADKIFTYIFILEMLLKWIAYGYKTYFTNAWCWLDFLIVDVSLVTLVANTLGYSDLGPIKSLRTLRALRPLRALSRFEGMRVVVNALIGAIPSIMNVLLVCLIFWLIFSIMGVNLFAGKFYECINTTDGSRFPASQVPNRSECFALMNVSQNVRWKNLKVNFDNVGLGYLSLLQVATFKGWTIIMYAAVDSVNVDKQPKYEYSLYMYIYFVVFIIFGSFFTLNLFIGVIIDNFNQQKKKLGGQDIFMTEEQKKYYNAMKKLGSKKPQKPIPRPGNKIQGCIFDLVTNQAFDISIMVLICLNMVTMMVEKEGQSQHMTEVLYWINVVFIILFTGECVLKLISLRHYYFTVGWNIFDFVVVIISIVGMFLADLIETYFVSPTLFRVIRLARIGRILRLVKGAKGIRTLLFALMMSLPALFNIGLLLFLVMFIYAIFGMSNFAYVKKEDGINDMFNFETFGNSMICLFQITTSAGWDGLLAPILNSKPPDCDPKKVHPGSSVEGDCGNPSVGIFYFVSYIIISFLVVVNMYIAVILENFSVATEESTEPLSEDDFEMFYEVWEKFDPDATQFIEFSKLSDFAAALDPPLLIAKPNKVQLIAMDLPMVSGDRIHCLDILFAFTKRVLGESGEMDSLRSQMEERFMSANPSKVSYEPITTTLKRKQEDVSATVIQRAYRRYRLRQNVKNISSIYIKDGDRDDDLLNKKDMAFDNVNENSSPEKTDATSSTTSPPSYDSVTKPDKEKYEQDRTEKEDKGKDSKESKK

IC50 [nM] | Structure (SMILES)
≤ 2000 | COc1cc(C(=O)N2CC[C@]3(c4cccc(F)c4)OCOC3C2)ccc1NCC1CC(F)(F)C1 (stereo partly drawn) [Compound 211]
2000 to 5000 | COc1cc(C(=O)N2CC[C@@]3(c4cccc(F)c4)OCOC3C2)ccc1OC(C)C(F)(F)F (stereo partly drawn) [Compound 212]
≤ 2000 | COc1nc(C(=O)N2CC[C@@]3(c4cccc(F)c4)OCOC3C2)ccc1OCC1(C(F)(F)F)CC1 (stereo partly drawn) [Compound 213]
≤ 2000 | COc1cc(C(=O)N2CC[C@@]3(c4cccc(F)c4)OCOC3C2)ccc1OCCOC(F)(F)F (stereo partly drawn) [Compound 214]
≤ 2000 | COc1cc(C(=O)N2CC[C@@]3(c4cccc(F)c4)OCOC3C2)ccc1OCC1CC(F)(F)C1 (stereo partly drawn) [Compound 215]
≤ 2000 | O=C(c1ccc(OCCOC(F)(F)F)c(Cl)c1)N1CC[C@@]2(c3cccc(F)c3)OCOC2C1 (stereo partly drawn) [Compound 216]
2000 to 5000 | CC(C)(F)COc1ccc(C(=O)N2CC[C@@]3(c4cccc(F)c4)OCOC3C2)cc1Cl (stereo partly drawn) [Compound 217]
≤ 2000 | O=C(c1ccc(OCCC(F)(F)F)c(C(F)(F)F)c1)N1CC[C@@]2(c3cccc(F)c3)OCOC2C1 (stereo partly drawn) [Compound 218]
> 5000 | CC(C)(F)COc1ccc(C(=O)N2CC[C@@]3(c4cccc(F)c4)OCOC3C2)cc1C(F)(F)F (stereo partly drawn) [Compound 219]
2000 to 5000 | O=C(c1ccc(OCCOC(F)(F)F)c(F)c1)N1CC[C@@]2(c3cccc(F)c3)OCOC2C1 (stereo partly drawn) [Compound 220]
≤ 2000 | COc1cc(Cl)nc([C@]23CCN(C(=O)c4ccc(OCCOC(F)(F)F)c(OC)c4)CC2OCO3)c1 (stereo partly drawn) [Compound 221]
≤ 2000 | COc1cc(C(=O)N2CC[C@]3(c4cc(C(F)(F)F)ccn4)OCOC3C2)ccc1OCCC1CC1(F)F (stereo partly drawn) [Compound 222]
≤ 2000 | COc1nc(C(=O)N2CC[C@]3(c4cccc(F)c4)OCOC3C2)ccc1OCC1CC2(C1)CC(F)(F)C2 (stereo partly drawn) [Compound 223]
≤ 2000 | COc1nc(C(=O)N2CC[C@]3(c4cccc(F)c4)OCOC3C2)ccc1OC(C)C1CC(F)(F)C1 (stereo partly drawn) [Compound 224]
≤ 2000 | COc1cc(C(=O)N2CC[C@]3(c4cc(F)cc(F)c4)OCOC3C2)ccc1OCC1CC(F)(F)C1 (stereo partly drawn) [Compound 225]
≤ 2000 | COc1cc(C(=O)N2CC[C@]3(c4cc(C(F)(F)F)ccn4)OCOC3C2)ccc1OCC1CC(F)(F)C1 (stereo partly drawn) [Compound 226]
≤ 2000 | COc1nc(C(=O)N2CC[C@]3(c4cccc(F)c4)OCOC3C2)ccc1OCC(F)(F)C1CC1 (stereo partly drawn) [Compound 227]
≤ 2000 | COc1cc(C(=O)N2CC[C@]3(c4cccc(F)c4)OCOC3C2)ccc1OCCOC(F)(F)F (stereo partly drawn) [Compound 228]
≤ 2000 | COc1nc(C(=O)N2CC[C@]3(c4cccc(F)c4)OCOC3C2)ccc1O[C@H]1CC2[C@H](C1)C2(F)F (stereo partly drawn) [Compound 229]
≤ 2000 | COc1nc(C(=O)N2CC[C@]3(c4cccc(F)c4)OCOC3C2)ccc1O[C@@H]1CC2[C@H](C1)C2(F)F (stereo partly drawn) [Compound 230]
≤ 2000 | COc1nc(C(=O)N2CC[C@]3(c4cccc(F)c4)OCOC3C2)ccc1OC1CC=CC1 (stereo partly drawn) [Compound 231]
≤ 2000 | COc1nc(C(=O)N2CC[C@]3(c4cccc(F)c4)OCOC3C2)ccc1OCC1CC=CC1 (stereo partly drawn) [Compound 232]

IC50 [nM] | Structure (SMILES)
≤ 2000 | COc1nc(C(=O)N2CC[C@]3(c4cccc(F)c4)OCOC3C2)ccc1OC1CC(F)(F)C1 (stereo partly drawn) [Compound 233]
≤ 2000 | COc1nc(C(=O)N2CC[C@]3(c4cccc(F)c4)OCOC3C2)ccc1OC(C)C(F)(F)C(F)F (stereo partly drawn) [Compound 234]
≤ 2000 | COc1nc(C(=O)N2CC[C@]3(c4cccc(F)c4)OCOC3C2)ccc1OCC1CCC(F)(F)C1 (stereo partly drawn) [Compound 235]
≤ 2000 | COc1nc(C(=O)N2CC[C@]3(c4cccc(F)c4)OCOC3C2)ccc1OCC1CC2C(C1)C2(F)F (stereo partly drawn) [Compound 236]
≤ 2000 | COc1nc(C(=O)N2CC[C@]3(c4cccc(F)c4)OCOC3C2)ccc1OCC1CC2C(C1)C2(F)F (stereo partly drawn) [Compound 237]
≤ 2000 | O=C(c1ccc(OCCOC(F)(F)F)c(Cl)c1)N1CCC2(c3ccccn3)CC2C1 (stereo not drawn) [Compound 238]
≤ 2000 | COc1cc(C(=O)N2CC[C@]3(c4cccc(F)c4)OCOC3C2)ccc1OC(C)C(F)(F)C(F)F (stereo partly drawn) [Compound 239]
≤ 2000 | COc1cc(C(=O)N2CC[C@]3(c4cccc(F)c4)OCOC3C2)ccc1OCC1CC(F)C1 (stereo partly drawn) [Compound 240]
2000 to 5000 | COc1cc(C(=O)N2CC[C@]3(c4cccc(F)c4)OCOC3C2)ccc1OCC1CCC1 (stereo partly drawn) [Compound 241]
≤ 2000 | COc1cc(C(=O)N2CC[C@]3(c4cccc(Cl)c4)OCOC3C2)ccc1O[C@H](C)C(F)(F)F (stereo partly drawn) [Compound 243]
≤ 2000 | COc1cc(C(=O)N2CC[C@]3(c4cccc(Cl)c4)OCOC3C2)ccc1O[C@@H](C)C(F)(F)F (stereo partly drawn) [Compound 244]
≤ 2000 | COc1ccnc([C@]23CCN(C(=O)c4ccc(OCCOC(F)(F)F)c(Cl)c4)CC2OCO3)c1 (stereo partly drawn) [Compound 245]
≤ 2000 | COc1ccnc([C@]23CCN(C(=O)c4ccc(OCC5CC(F)(F)C5)c(OC)n4)CC2OCO3)c1 (stereo partly drawn) [Compound 246]
≤ 2000 | O=C(c1ccc(OCCOC(F)(F)F)c(Cl)c1)N1CC[C@@]2(c3ccccn3)C(C1)C2(F)F (stereo partly drawn) [Compound 247]
≤ 2000 | O=C(c1ccc(OCCOC(F)(F)F)c(Cl)c1)N1CC[C@]2(c3cc(C(F)(F)F)ccn3)OCOC2C1 (stereo partly drawn) [Compound 248]
≤ 2000 | CCOc1nc(C(=O)N2CC[C@]3(c4cccc(F)c4)OCOC3C2)ccc1OCCOC(F)(F)F (stereo partly drawn) [Compound 249]
≤ 2000 | COc1nc(C(=O)N2CC[C@]3(c4cc(C(F)(F)F)ccn4)OCOC3C2)ccc1OCC1CC(F)(F)C1 (stereo partly drawn) [Compound 250]
≤ 2000 | COc1cc(C(=O)N2CC[C@]3(c4cc(C(F)(F)F)ccn4)OCOC3C2)ccc1OCCC(F)(F)F (stereo partly drawn) [Compound 251]
≤ 2000 | COc1cc(C(=O)N2CC[C@]3(c4cccc(F)c4)OCOC3C2)ccc1OCCC1CC1(F)F (stereo partly drawn) [Compound 252]
≤ 2000 | O=C(c1ccc(OCCOC(F)(F)F)c(Cl)c1)N1CC[C@@]2(c3ccccn3)COC2C1 (stereo partly drawn) [Compound 253]
≤ 2000 | COc1nc(C(=O)N2CC[C@]3(c4cccc(F)c4)OCOC3C2)ccc1OCC1CC(F)(F)C1(F)F (stereo partly drawn) [Compound 254]
≤ 2000 | O=C(c1ccc(OCCOC(F)(F)F)c(Cl)c1)N1CC[C@]2(c3cccc(F)c3)OCOC2C1 (stereo partly drawn) [Compound 255]

IC50 [nM] | Structure (SMILES)
≤ 2000 | Cc1cc(C(=O)N2CC[C@]3(c4cccc(F)c4)OCOC3C2)ccc1OCC(C)(C)F (stereo partly drawn) [Compound 256]
≤ 2000 | COc1cc(C(=O)N2CC[C@]3(c4cccc(F)c4F)OCOC3C2)ccc1O[C@H](C)C(F)(F)F (stereo partly drawn) [Compound 257]
≤ 2000 | COc1cc(C(=O)N2CC[C@]3(c4cccc(F)c4F)OCOC3C2)ccc1O[C@@H](C)C(F)(F)F (stereo partly drawn) [Compound 258]
≤ 2000 | COc1cc(C(=O)N2CCC3(c4ccccn4)C(C2)C3(F)F)ccc1OCC1CC(F)(F)C1 (stereo not drawn) [Compound 259]
≤ 2000 | COc1cc(C(=O)N2CCC3(c4ccccn4)C(C2)C3(F)F)ccc1OCCOC(F)(F)F (stereo not drawn) [Compound 260]
> 5000 | O=C(c1ccc(S(=O)(=O)C(F)F)cc1)N1CC[C@]2(c3cccc(F)c3)OCOC2C1 (stereo partly drawn) [Compound 261]
≤ 2000 | COc1nc(C(=O)N2CC[C@]3(c4cccc(F)c4F)OCOC3C2)ccc1OCC(F)(F)C(F)F (stereo partly drawn) [Compound 262]
≤ 2000 | COc1nc(C(=O)N2CC[C@]3(c4cccc(F)c4F)OCOC3C2)ccc1OC(C)C(F)(F)F (stereo partly drawn) [Compound 263]
≤ 2000 | COc1nc(C(=O)N2CC[C@]3(c4cccc(F)c4)OCOC3C2)ccc1OC(C)C(F)(F)F (stereo partly drawn) [Compound 264]
≤ 2000 | COc1nc(C(=O)N2CC[C@]3(c4ccccc4)OCOC3C2)ccc1OCC1(C(F)(F)F)CC1 (stereo partly drawn) [Compound 265]
≤ 2000 | COc1cc(C(=O)N2CC[C@@]3(c4ccccn4)CC3C2)ccc1OCCOC(F)(F)F (stereo partly drawn) [Compound 266]
≤ 2000 | COc1nc(C(=O)N2CC[C@]3(c4cccc(C(F)(F)F)n4)OCOC3C2)ccc1OCC1CC(F)(F)C1 (stereo partly drawn) [Compound 267]
≤ 2000 | COc1nc(C(=O)N2CC[C@]3(c4cccc(F)c4)OCOC3C2)ccc1OCC1(C(F)(F)F)CC1 (stereo partly drawn) [Compound 268]
≤ 2000 | [2H]C1([2H])OC2CN(C(=O)c3ccc(OCC4(C(F)(F)F)CC4)c(OC)n3)CC[C@]2(c2cc(F)cc(F)c2)O1 (stereo partly drawn) [Compound 269]
≤ 2000 | COc1nc(C(=O)N2CC[C@]3(c4cccc(Cl)c4)OCOC3C2)ccc1OCC1(C(F)(F)F)CC1 (stereo partly drawn) [Compound 270]
≤ 2000 | COc1nc(C(=O)N2CC[C@]3(c4cccc(F)c4F)OCOC3C2)ccc1OCC1(C(F)(F)F)CC1 (stereo partly drawn) [Compound 271]
≤ 2000 | COc1nc(C(=O)N2CC[C@]3(c4cccc(C(F)(F)F)n4)OCOC3C2)ccc1OCCOC(F)(F)F (stereo partly drawn) [Compound 272]
≤ 2000 | COc1cc(C(=O)N2CC[C@]3(c4cccc(C(F)(F)F)n4)OCOC3C2)ccc1OC(C)C(F)(F)F (stereo partly drawn) [Compound 273]
≤ 2000 | COc1cc(C(=O)N2CC[C@]3(c4cccc(C(F)(F)F)n4)OCOC3C2)ccc1OCCC(F)(F)F (stereo partly drawn) [Compound 274]
≤ 2000 | COc1cc(C(=O)N2CC[C@]3(c4cccc(C(F)(F)F)n4)OCOC3C2)ccc1OCC1CC(F)(F)C1 (stereo partly drawn) [Compound 275]
> 5000 | COc1cc(C(=O)N2CC[C@]3(c4ccccn4)COC[C@@H]3C2)ccc1OCCOC(F)(F)F [Compound 276]
≤ 2000 | COc1cc(C(=O)N2CC[C@]3(c4ccccn4)C(=O)OCC3C2)ccc1OCCOC(F)(F)F (stereo partly drawn) [Compound 277]
